Data: patent US20240299373A1, “IMPROVED USE OF TRADIPITANT IN MOTION SICKNESS” (Vanda Pharmaceuticals Inc., priority 2023, published 2024)
Marks after values point to notes of the source that are not given here.

Experiments:
NK-1 receptor = target: T1, NK-1 receptor (Meriones unguiculatus, UniProt Q5DUB1); assay: NK-1 agonist (GR73632, icv)-induced foot-tapping behavior in gerbils; type: in vivo; settings: gerbil, 1 mg/kg
T1 construct: centrally acting NK-1 receptor antagonist in vivo in the gerbil; from tissue; host or cells: brain of living Mongolian gerbils
Procedure: Male Mongolian gerbils (Harlan Sprague Dawley, Indianapolis, IN) weighing 26 to 40 grams are administered the selective neurokinin-1 receptor agonist GR73632 (3 pmol) via direct, vertical, free-hand intracerebroventricular (icy) injection to a depth of 4.5 mm below bregma with a cuffed 27-gauge needle attached to a 50 μl Hamilton syringe. Immediately after injection, animals are placed individually into isolated chambers with pressure-sensitive velocimeter platform floors (San Diego Instruments acoustic startle apparatus) that detect and quantify vibration. The San Diego Instruments “SR” DOS-based computer program is used on a PC to record the number of foot-taps over the following 6 to 10 minutes, beginning 30 seconds after the floor is lightly tapped. […] The total number and average intensity of events over the duration is determined. Total number of taps is analyzed with one-way ANOVA and post-hoc Dunnett's test using JMP statistical software.
A dose-response curve (with doses of 0.3, 1, 3 and 10 pmols, icy) is initially generated with the NK-1 agonist GR73632.
NK-1 antagonists are tested for their ability to attenuate GR73632-induced foot tapping. NK-1 antagonists are administered (po) via oral feeding tube at doses and time points specified in each experiment. […]
NK-1 antagonists are administered at multiple doses (at least 3; one dose per animal) and response to GR73632 is measured. […]

[1] = test system: apomorphine-induced emesis; assay: Emetic challenge study (apomorphine-induced emesis) in beagle dogs; type: in vivo, beagle dog; settings: 3.0 mg/kg oral, apomorphine 0.1 mg/kg iv 2 hours later, five dogs; APO control 28
Procedure: Over the five (5) weeks of the study, each animal receives each of the treatments, but only one per week. The purpose of this study is to determine if tradipitant suppresses apomorphine-induced emesis.
The mid dose of tradipitant is the approximate half-log interval between the low and high doses.
All animals are dosed over a period of five (5) weeks, with each dog receiving one of five different treatments on each day of dosing.
All dogs are fasted overnight prior to each treatment day and then fed approximately one (1) hour after oral dosing (approximately one (1) hour prior to administration of apomorphine). Individual doses are adjusted weekly for changes in body weight.
The dose regimen consists of a 5×5 Latin square design, in which each subject receives 1 dose or dose combination per week (6 day washout) as shown in Table 3 below.

[2] = test system: vomiting due to motion sickness; settings: crossover study; cited from earlier work

T1 sequence (Q5DUB1 whole entry): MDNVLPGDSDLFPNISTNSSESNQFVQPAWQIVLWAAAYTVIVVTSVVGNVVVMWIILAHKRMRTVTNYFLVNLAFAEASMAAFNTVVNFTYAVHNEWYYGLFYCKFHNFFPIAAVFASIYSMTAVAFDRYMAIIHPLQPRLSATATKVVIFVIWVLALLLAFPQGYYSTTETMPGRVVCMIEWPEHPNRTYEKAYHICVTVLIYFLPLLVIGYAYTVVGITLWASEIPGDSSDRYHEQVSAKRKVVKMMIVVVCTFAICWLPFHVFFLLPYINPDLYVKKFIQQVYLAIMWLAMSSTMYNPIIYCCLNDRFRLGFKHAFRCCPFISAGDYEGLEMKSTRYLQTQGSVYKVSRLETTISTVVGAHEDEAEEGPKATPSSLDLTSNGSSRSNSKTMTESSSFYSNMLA

| time after administration up to which foot-tapping behavior is inhibited (NK-1 receptor) | SMILES | Total No. Emetic Episodes [1] | dogs in which occurrence of vomiting was reduced as compared to placebo [2] |
| --- | --- | --- | --- |
| up to 24 hours | C[C@@H](O[C@H]1OCCN(Cc2n[nH]c(=O)[nH]2)[C@H]1c1ccc(F)cc1)c1cc(C(F)(F)F)cc(C(F)(F)F)c1 [Aprepitant, reference compound] | 1** |  |
|  | COc1ccc(C(C)(C)C)cc1CN[C@H]1C2CCN(CC2)[C@H]1C(c1ccccc1)c1ccccc1 [Maropitant] |  | over 75% |
